Assay [1] deals with T1, hCB2 (Homo sapiens, UniProt P34972).
T1 construct: gene CNR2; full-length receptor in CHO-K1 cells, membranes or intact cells; PathHunter CHO-K1-HOMSA-CNR2 for beta-arrestin
The experiment in a line: […]GTPγS binding, CHO-hCB2 membranes. In kind it is biochemical. A general note: Binding of GTPγS marks nucleotide exchange on a G protein.

Assay [2] has as its target T2, hCOX-2 (Homo sapiens, UniProt P35354).
T2 construct: gene PTGS2
T2 sequence (P35354 18-604): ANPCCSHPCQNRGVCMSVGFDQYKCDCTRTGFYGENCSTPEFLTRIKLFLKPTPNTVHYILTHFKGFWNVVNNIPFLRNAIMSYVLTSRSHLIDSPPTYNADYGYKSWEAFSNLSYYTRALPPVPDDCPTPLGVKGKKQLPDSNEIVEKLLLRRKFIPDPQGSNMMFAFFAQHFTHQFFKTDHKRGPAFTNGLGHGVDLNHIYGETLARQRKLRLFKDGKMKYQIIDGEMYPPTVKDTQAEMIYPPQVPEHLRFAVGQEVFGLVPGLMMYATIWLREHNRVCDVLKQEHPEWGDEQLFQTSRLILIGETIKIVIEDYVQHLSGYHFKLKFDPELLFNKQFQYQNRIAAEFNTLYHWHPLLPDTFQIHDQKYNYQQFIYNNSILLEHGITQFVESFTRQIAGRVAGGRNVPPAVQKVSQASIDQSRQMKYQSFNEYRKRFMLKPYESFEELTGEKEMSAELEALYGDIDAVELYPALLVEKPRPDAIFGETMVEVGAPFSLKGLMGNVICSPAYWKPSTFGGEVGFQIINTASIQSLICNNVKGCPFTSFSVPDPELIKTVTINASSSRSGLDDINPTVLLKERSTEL
The experiment in a line: fluorescent COX inhibitor assay (ADHP), recombinant hCOX-2. The format is biochemical. The note with it: read-out: h COX-2 / AA. The source says: fluorescent COX inhibitor assay (ADHP), recombinant hCOX-2 on hCOX-2

Assay [3] concerns the target T3, hCB1 (Homo sapiens, UniProt P21554).
T3 construct: gene CNR1; full-length receptor in CHO cell membranes
The experiment in a line: [3H]CP55, […] displacement, CHO membranes. The format is binding. The note with it: read-out: CHO membranes / h CB 1.

Assay [4] deals with T1, hCB2. As to the kind of experiment: [3H]CP55, […] displacement, CHO membranes. The format is binding.
Assay [5] addresses T1, hCB2. The experiment in a line: forskolin-induced cAMP, GloSensor, CHO-hCB2 cells. The note with it: read-out: CHO cells / h CB2 cAMP. The format is cell-based. The source says:
forskolin-induced cAMP, GloSensor, CHO-hCB2 cells on hCB2

Assay [6] deals with T1, hCB2. As to the kind of experiment: […]GTPγS binding, CHO-hCB2 membranes. In kind it is biochemical. The note with it: read-out: CHO membranes / h CB2 [ ^35 S] GTPγS.
[7] abbreviates: read-out: CHO membranes / h CB 2.

Each structure is given as a SMILES string. Read-outs that look alike come from different tables or passages of the source. Some results are limits rather than exact numbers.

T1 sequence (P34972 whole entry): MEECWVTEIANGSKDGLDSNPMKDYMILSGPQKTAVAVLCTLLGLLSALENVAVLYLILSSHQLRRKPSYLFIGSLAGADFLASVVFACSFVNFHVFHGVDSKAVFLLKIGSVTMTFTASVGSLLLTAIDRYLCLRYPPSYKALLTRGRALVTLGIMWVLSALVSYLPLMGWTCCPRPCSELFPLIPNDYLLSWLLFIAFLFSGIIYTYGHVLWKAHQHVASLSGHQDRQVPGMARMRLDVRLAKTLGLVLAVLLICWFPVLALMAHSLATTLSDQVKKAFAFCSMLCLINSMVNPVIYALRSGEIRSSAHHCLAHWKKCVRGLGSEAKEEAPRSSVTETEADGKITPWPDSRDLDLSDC
T3 sequence (P21554 whole entry): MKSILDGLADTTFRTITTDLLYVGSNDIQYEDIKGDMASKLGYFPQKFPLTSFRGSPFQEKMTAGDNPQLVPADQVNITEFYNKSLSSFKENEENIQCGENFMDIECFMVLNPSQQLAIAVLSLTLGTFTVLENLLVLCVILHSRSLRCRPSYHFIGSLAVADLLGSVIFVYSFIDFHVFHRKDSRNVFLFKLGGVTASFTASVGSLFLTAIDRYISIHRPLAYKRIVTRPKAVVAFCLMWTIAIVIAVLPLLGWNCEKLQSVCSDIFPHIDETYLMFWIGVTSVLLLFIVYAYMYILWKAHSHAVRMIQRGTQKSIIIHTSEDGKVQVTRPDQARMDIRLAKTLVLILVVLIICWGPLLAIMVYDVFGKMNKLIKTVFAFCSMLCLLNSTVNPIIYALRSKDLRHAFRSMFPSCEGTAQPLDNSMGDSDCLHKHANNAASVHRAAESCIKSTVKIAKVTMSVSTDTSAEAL

On to `CCCCC/C=C\C/C=C\C/C=C\C/C=C\CCCC(=O)OC(CO)CO` [2-AG], for which, in assay [1] (read-out: EC50), the EC50 came out at 74 nM.

`C=CCc1ccc(OC)c(-c2ccc(O)c(CC=C)c2)c1` [27a, 2-methoxy-5,3′-di-(2-propenyl)-biphenyl-4′-ol]: the IC50 amounted to 1210 ± 80 nM in assay [2] and 710 ± 90 nM in assay [5]. Moreover, the Ki in assay [3] is 790 ± 100 nM; in assay [4] (setting [7]), 110 ± 90 nM. Besides, the EC50 in assay [1] (read-out: CHO membranes / h CB2 [ ^35 S] GTPγS) was 180 ± 90 nM.

As to `C=CCc1ccc(OCCCC)c(-c2ccc(O)c(CC=C)c2)c1` [34a, 2-butyloxy-5,3′-di-(2-propenyl)-biphenyl-4′-ol], the IC50 in assay [2] is 4310 ± 100 nM; in assay [6], 1820 ± 140 nM. The Ki in assay [3] is 1120 ± 150 nM; in assay [4] (setting [7]) it was 350 ± 110 nM.

For `C=CCc1ccc(O)c(-c2ccc(OC)c(CC=C)c2)c1` [MH, 4′-methoxy-5,3′-di-(2-propenyl)-biphenyl-2-ol], the IC50 in assay [2] (substrate arachidonic acid 10 μM, heme, pH 8, 15 min pre-incubation, RT) was determined as 580 ± 80 nM.

As for `CCC(C)c1ccc(O)c(-c2cc(C(C)CC)ccc2O)c1` (stereo not shown) [compound 32, 5,5′-di-sec-butyl-biphenyl-2,2′-diol], in assay [2], the IC50 is 10200 ± 120 nM. Besides, the Ki in assay [4] is > 10000 nM.
